Results on two compounds are retold here after US10363284B2, “β-hairpin peptidomimetics” (POLYPHOR AG, priority 2012, dated 2019).

Data set [1] deals with T1, CXCR4 receptor (Homo sapiens, UniProt P61073).
T1 construct: CXCR4 natively expressing non-adherent cells; endogenous in cells; host or cells: Namalwa cells (ATCC CRL-1432)
Briefly: Chemotactic assay (cell migration assay), Namalwa cells, SDF-1 gradient. Type of data set: cell-based. The protocol:
(§1) Namalwa cells (CXCR4 natively expressing non-adherent cells, ATCC CRL-1432) were cultured in RPM11640 plus 10% FBS, and pen/strept. HELA cells were maintained in RPMI1640 plus 10% FBS, pen/strept and 2 mM L-glutamine. Cos-7 cells were grown in DMEM medium with […] glucose supplemented with 10% FCS, pen/strept and 2 mM L-glutamine. All cell lines were grown at 37° C. at 5% CO2. Cell media, media supplements, PBS-buffer, HEPES, antibiotic/antimycotic, pen/strept, non essential amino acid, L-glutamine, β-mercaptoethanol and sera were purchased from Gibco (Pailsey, UK). All fine chemicals were supplied by Merck (Darmstadt, Germany).
The chemotactic response of Namalwa cells (ATCC CRL-1432) to a gradient of stromal cell-derived factor 1α (SDF-1) was measured using a modified Boyden chamber chemotaxis system (ChemoTx; Neuroprobe). […] Migrated cells were transferred using a “funnel” adaptor to a receiving 96-well plate and the cell number was determined by using the CyQuant™ NF cell proliferation assay (Invitrogen) based on the measurement of cellular DNA content via fluorescent dye binding. […] After incubation for 0.5 h at room temperature the plate was sealed and the fluorescence intensity of each sample was measured by using a Wallac 1420 VICTOR^2™ plate reader (PerkinElmer) with excitation at 485 nm and emission detection at 535 nm. […]

The nature of data set [2]: Plasma protein binding. Particulars: human. Type of data set: in vitro ADME. The method, then: 495 μL aliquots of human plasma (Basler Blutspendedienst) as well as 495 μL aliquots of PBS were placed in individual deepwells of a polypropylene plate (Greiner) and spiked each with 5 μL of 1 mM solutions of peptides in 90% DMSO. After shaking the plate for 2 min at 600 rpm 150 μL aliquots of the plasma/peptide mixtures were transferred in triplicates to the polypropylene filter plate (10 kDa, Millipore) whereas 150 μL aliquots of the PBS/peptide mixtures were transferred either to the individual wells of the filter plate (filtered controls) or directly into the individual wells of the receiving plate (Greiner) (non-filtered controls). The plate sandwich consisting of filter and receiving plate was incubated for 1 h at 37° C. and subsequently centrifuged at 3220 g for 2 h at 15° C. The filtrates in the receiving plate were analysed by LC/MS as follows: Column: Waters, XBridge C18, mobile phases: (A) water+0.1% formic acid and (B) acetonitrile/water, 95/5 (v/v)+0.1% formic acid, gradient: 5%-100% (B) in 1.8 minutes, electrospray ionization, MRM detection (triple quadrupole). The peak areas were determined and triplicate values are averaged. The binding is expressed in percent of the filtered and non-filtered controls by 100−(100×T1h/Tctr). Finally the average of these values is calculated.

Data set [3] can be described thus: in vitro. Type of data set: cell-based. The protocol: as §1
The cytotoxicity of the peptides to HELA cells (Acc57) and COS-7 cells (CRL-1651) was determined using the MTT reduction assay (T. Mossman, J. Immunol. Meth. 1983, 65, 55-63; M. V. Berridge, A. S. Tan, Arch. Biochem. Biophys. 1993, 303, 474-482). Briefly, the method was as follows: 4000 HELA cells/well and 3400 COS-7 cells/well were seeded and grown in 96-well microtiter plates for 24 h at 37° C. at 5% CO2. Thereafter, time zero (Tz) was determined by MTT reduction (see below). The supernatant of the remaining wells was discarded, and fresh medium and compounds in serial dilutions (12.5, 25 and 50 μM, triplicates; 0 μM, blank) were pipetted into the wells. After incubation of the cells for 48 h at 37° C. at 5% CO2 the supernatant was discarded again and 100 μL MTT reagent (0.5 mg/mL in RPMI1640 and DMEM, respectively)/well was added. Following incubation at 37° C. for 2-4 h the media were aspirated and the cells were spiked (100 μL isopropanol/well). The absorbance of the solubilized formazan was measured at 595 nm (OD595peptide). For each concentration averages were calculated from triplicates. The percentage of growth was calculated as follows: (OD595peptide−OD595Tz)/(OD595blank−OD595Tz)×100%. The GI50 (Growth Inhibition) concentrations were calculated for each peptide by using a trend line function for the concentrations (50, 25, 12.5 and 0 μM), the corresponding percentages and the value 50, (=TREND (C50:C0,%50:%0, 50).

Setting [4] is: read-out: Plasma protein binding (converted).

Read-outs that look alike come from different tables or passages of the source. Positions of bridges follow the written chain, without caps; N, C: chain ends. Non-standard residues stand in square brackets, D forms with d. Residues, ends and D or L forms follow the SMILES beside them. dLys(iPr) = CC(C)NCCCC[C@@H](N)C(=O)O; Lys(iPr) = CC(C)NCCCC[C@H](N)C(=O)O; Orn(iPr) = CC(C)NCCC[C@H](N)C(=O)O; Ac3c = NC1(C(=O)O)CC1

T1 sequence (P61073 whole entry): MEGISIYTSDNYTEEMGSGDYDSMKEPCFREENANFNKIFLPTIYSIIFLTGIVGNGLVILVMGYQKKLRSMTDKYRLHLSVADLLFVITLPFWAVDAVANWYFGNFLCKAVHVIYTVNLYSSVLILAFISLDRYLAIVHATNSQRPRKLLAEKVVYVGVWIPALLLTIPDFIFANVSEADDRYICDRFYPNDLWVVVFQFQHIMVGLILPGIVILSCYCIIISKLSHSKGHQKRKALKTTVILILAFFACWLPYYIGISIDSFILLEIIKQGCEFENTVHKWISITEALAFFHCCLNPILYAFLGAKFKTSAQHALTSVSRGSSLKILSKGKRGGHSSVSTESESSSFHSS

On to `CC(C)NCCCC[C@@H]1NC(=O)[C@H](CCC(N)=O)NC(=O)[C@H](Cc2ccc(O)cc2)NC(=O)[C@@H]2CSSC[C@H](NC(=O)[C@H](Cc3ccc(O)cc3)NC(=O)[C@H](Cc3c[nH]cn3)NC(=O)[C@H](Cc3ccc(O)cc3)NC(=O)[C@@H]3CCCN3C(=O)[C@@H](CCCCNC(C)C)NC1=O)C(=O)N[C@@H](CO)C(=O)N[C@@H](C)C(=O)N1CCC[C@@H]1C(=O)N[C@@H](CCCNC(C)C)C(=O)N[C@@H](CCCNC(=N)N)C(=O)N[C@@H](Cc1ccc(O)cc1)C(=O)N2` [Ex. 1, cyclo(-Tyr^1-His^2-Tyr^3-Cys^4-Ser^5-Ala^6-^DPro^7-Orn(iPr)^8-Arg^9-Tyr^10-Cys^11-Tyr^12-Gln^13-Lys(iPr)^14-^DLys(iPr)^15-Pro^16-), disulfide bond between Cys^4 and Cys^11] (cyclo(A[dP][Orn(iPr)]RYCYQ[Lys(iPr)][dLys(iPr)]PYHYCS); disulfide 6-15), for which the IC50 – broadly, the point on the concentration scale where inhibition reaches its midpoint – in data set [1] was determined as 0.00017 ± 0.0001 µM. Further, the fraction unbound at 1 h, 10 μM in data set [2] (read-out: Fraction unbound, fu) is 0.45; in data set [2] (setting [4]), 0.45. In addition, the GI50 – broadly, the concentration that inhibits growth by half – at 48 h is more than 50 µM in data set [3] (African green monkey) and more than 42 µM in data set [3] (human).

As to `CC(C)NCCCC[C@@H]1NC(=O)[C@H](CCC(N)=O)NC(=O)[C@H](Cc2ccc(O)cc2)NC(=O)[C@@H]2CSSC[C@H](NC(=O)[C@H](Cc3ccc(O)cc3)NC(=O)[C@H](Cc3c[nH]cn3)NC(=O)[C@H](Cc3ccc(O)cc3)NC(=O)[C@@H]3CCCN3C(=O)[C@H]3CCCN3C1=O)C(=O)N[C@@H](CO)C(=O)NC1(CC1)C(=O)N1CCC[C@@H]1C(=O)N[C@@H](CCCNC(C)C)C(=O)N[C@@H](CCCNC(=N)N)C(=O)N[C@@H](Cc1ccc(O)cc1)C(=O)N2` [Ex. 2, cyclo(-Tyr^1-His^2-Tyr^3-Cys^4-Ser^5-Acc^6-^DPro^7-Orn(iPr)^8-Arg^9-Tyr^10-Cys^11-Tyr^12-Gln^13-Lys(iPr)^14-^DPro^15-Pro^16-), disulfide bond between Cys^4 and Cys^11] (cyclo(YHYCS[Ac3c][dP][Orn(iPr)]RYCYQ[Lys(iPr)][dP]P); disulfide 4-11), the IC50 in data set [1] was determined as 0.00032 ± 0.0001 µM. Moreover, the fraction unbound at 1 h, 10 μM in data set [2] (read-out: Fraction unbound, fu) is 0.57; in data set [2] (setting [4]) it was 0.57. The values for the 50% growth inhibitory concentration (GI50) at 48 h in data set [3] (African green monkey) and in data set [3] (human) were more than 50 µM and more than 34 µM, respectively.
